Reference: the NIST ThermoML archive (doi:10.1016/j.tca.2009.07.011)
Numbers after ± are expanded uncertainties. Blank lines part the entries; values can stand above or below the compound they belong to.

Key:
[1] = refractive index (Na D-line) (dimensionless); xn = mol fraction of the nth substance listed; settings: 298.15 K, 101 kPa, Liquid, Standard Abbe refractometry
[2] = xn = mol fraction of the nth substance listed; settings: 298.15 K, 101 kPa, Liquid; for viscosity: Capillary tube (Ostwald / Ubbelohde) method; for mass density: Pycnometric method; for speed of sound: ultra sonice interferometer
[3] = refractive index (Na D-line) (dimensionless); settings: 298.15 K; 101.33 kPa; Liquid; Standard Abbe refractometry
[4] = 298.15 K, 101 kPa, Liquid

SMILES: ClCCl [dichloromethane] + COC(C)=O
refractive index ([1]; x1 = 0.4659): 1.38 ± 0.001
viscosity ([2]; x1 = 0.4659): 0.425 ± 0.007 mPa·s
mass density ([2]; x1 = 0.4659): 1078 ± 0.6 kg/m3
speed of sound ([2]; x1 = 0.4659): 1056 ± 1 m/s

refractive index ([1]; x2 = 0.6052): 1.406 ± 0.001
viscosity ([2]; x2 = 0.6052): 0.633 ± 0.008 mPa·s
mass density ([2]; x2 = 0.6052): 1043.3 ± 0.6 kg/m3
speed of sound ([2]; x2 = 0.6052): 1115 ± 1 m/s
SMILES: CC(=O)OCCC(C)C [3-methylbutyl ethanoate] + ClCCl

SMILES: ClCCl [dichloromethane] + CCCOC(C)=O
refractive index ([1]; x1 = 0.546): 1.397 ± 0.001
viscosity ([2]; x1 = 0.546): 0.518 ± 0.007 mPa·s
mass density ([2]; x1 = 0.546): 1053.5 ± 0.6 kg/m3
speed of sound ([2]; x1 = 0.546): 1181 ± 1 m/s

SMILES: ClCCl [dichloromethane] + CCOC(C)=O
refractive index ([1]; x1 = 0.5092): 1.388 ± 0.001
viscosity ([2]; x1 = 0.5092): 0.456 ± 0.007 mPa·s
mass density ([2]; x1 = 0.5092): 1059.2 ± 0.6 kg/m3
speed of sound ([2]; x1 = 0.5092): 1059 ± 1 m/s

refractive index [3]: 1.398 ± 0.001
viscosity ([4]; Capillary tube (Ostwald / Ubbelohde) method): 0.588 ± 0.008 mPa·s
mass density ([4]; Pycnometric method): 1057 ± 0.6 kg/m3
speed of sound ([4]; ultra sonice interferometer): 1339 ± 1 m/s
SMILES: C1COCO1 [1,3-dioxolane]

SMILES: ClCCl [dichloromethane] + CCCCOC(C)=O
refractive index ([1]; x1 = 0.5777): 1.403 ± 0.001
viscosity ([2]; x1 = 0.5777): 0.575 ± 0.008 mPa·s
mass density ([2]; x1 = 0.5777): 1049.2 ± 0.6 kg/m3
speed of sound ([2]; x1 = 0.5777): 1181 ± 1 m/s
